Laboratory results: ChEMBL document CHEMBL1126305, “Synthesis and antiviral properties of (+/-)-5'-noraristeromycin and related purine carbocyclic nucleosides. A new lead for anti-human cytomegalovirus agent design” (1992)
In brackets after ≈: the same amount, converted by molar mass.

What was measured:
E6SM [1] = assay: Minimum inhibitory concentration required to reduce virus induced cytopathicity by 50% was determined against HSV-2 virus in E6SM cells; type: functional; conditions: Homo sapiens
E6SM [2] = assay: Minimum inhibitory concentration required to reduce virus induced cytopathicity by 50% was determined against TK- HSV-1 virus in E6SM cells; type: functional; conditions: Homo sapiens
E6SM [3] = assay: Minimum inhibitory concentration required to reduce virus induced cytopathicity by 50% was determined against vaccinia virus in E6SM cells; type: functional; conditions: Homo sapiens
E6SM [4] = assay: Minimum inhibitory concentration required to reduce virus induced cytopathicity by 50% was determined against vesicular stomatitis virus in E6SM cells; type: functional; conditions: Homo sapiens
Homo sapiens = species: Homo sapiens; assay: (§1) Minimum inhibitory concentration required to reduce virus induced cytopathicity by 50% was determined against HCMV virus in HEL cells; type: functional
HeLa [5] = assay: Minimum inhibitory concentration required to reduce virus induced cytopathicity by 50% was determined against coxsackie B4 virus in HeLa cells; type: functional; conditions: Homo sapiens
HeLa [6] = assay: Minimum inhibitory concentration required to reduce virus induced cytopathicity by 50% was determined against polio 1 virus in HeLa cells; type: functional; conditions: Homo sapiens
HeLa [7] = assay: Minimum inhibitory concentration required to reduce virus induced cytopathicity by 50% was determined against respiratory syncytial virus in HeLa cells; type: functional; conditions: Homo sapiens
HeLa [8] = assay: Minimum inhibitory concentration required to reduce virus induced cytopathicity by 50% was determined against vesicular stomatitis virus in HeLa cells; type: functional; conditions: Homo sapiens
HEL [9] = assay: Minimum inhibitory concentration required to reduce virus induced cytopathicity by 50% was determined against TK- VZV virus in HEL cells; type: functional; conditions: Homo sapiens
HEL [10] = assay: Minimum inhibitory concentration required to reduce virus induced cytopathicity by 50% was determined against VZV virus in HEL cells; type: functional; conditions: Homo sapiens
Influenza A virus = assay: (§2) Minimum inhibitory concentration required to reduce virus induced cytopathicity by 50% was determined against influenza A virus in MDCK cells; type: functional
Influenza B virus = assay: (§3) Minimum inhibitory concentration required to reduce virus induced cytopathicity by 50% was determined against influenza B virus in MDCK cells; type: functional
Vero [11] = assay: (§4) Minimum inhibitory concentration required to reduce virus induced cytopathicity by 50% was determined against parainfluenza 3 virus in Vero cells; type: functional, Homo sapiens; conditions: Chlorocebus sabaeus
Vero [12] = assay: Minimum inhibitory concentration required to reduce virus induced cytopathicity by 50% was determined against tacaribe virus in Vero cells; type: functional, Homo sapiens; conditions: Chlorocebus sabaeus
Vero [13] = assay: Minimum inhibitory concentration required to reduce virus induced cytopathicity by 50% was determined against coxsackie B4 virus in Vero cells; type: functional; conditions: Chlorocebus sabaeus
Vero [14] = assay: Minimum inhibitory concentration required to reduce virus induced cytopathicity by 50% was determined against junin virus in Vero cells; type: functional; conditions: Chlorocebus sabaeus
Vero [15] = assay: Minimum inhibitory concentration required to reduce virus induced cytopathicity by 50% was determined against measles virus in Vero cells; type: functional; conditions: Chlorocebus sabaeus
Vero [16] = assay: Minimum inhibitory concentration required to reduce virus induced cytopathicity by 50% was determined against reo type 1 virus in Vero cells; type: functional; conditions: Chlorocebus sabaeus
Vero [17] = assay: Minimum inhibitory concentration required to reduce virus induced cytopathicity by 50% was determined against semliki forest virus in Vero cells; type: functional; conditions: Chlorocebus sabaeus
Vero [18] = assay: Minimum inhibitory concentration required to reduce virus induced cytopathicity by 50% was determined against sindbis virus in Vero cells; type: functional; conditions: Chlorocebus sabaeus
E6SM [19] = assay: Minimum inhibitory concentration required to reduce virus induced cytopathicity by 50% was determined against HSV-1 virus in E6SM cells; type: functional; conditions: Homo sapiens
MDCK [20] = assay: as §2; type: functional; conditions: Canis lupus familiaris
MDCK [21] = assay: as §3; type: functional; conditions: Canis lupus familiaris
HEL [22] = assay: as §1; type: functional; conditions: Homo sapiens
Vero [23] = assay: as §4; type: functional; conditions: Chlorocebus sabaeus

SMILES | MIC (E6SM [1]) [µg/mL] | MIC (E6SM [2]) [µg/mL] | MIC (E6SM [3]) [µg/mL] | MIC (E6SM [4]) [µg/mL] | MIC (Homo sapiens) [µg/mL] | MIC (HeLa [5]) [µg/mL] | MIC (HeLa [6]) [µg/mL] | MIC (HeLa [7]) [µg/mL] | MIC (HeLa [8]) [µg/mL] | MIC (HEL [9]) [µg/mL] | MIC (HEL [10]) [µg/mL] | MIC (Vero [11]) [µg/mL] | MIC (Vero [12]) [µg/mL] | MIC (Vero [13]) [µg/mL] | MIC (Vero [14]) [µg/mL] | MIC (Vero [15]) [µg/mL] | MIC (Vero [16]) [µg/mL] | MIC (Vero [17]) [µg/mL] | MIC (Vero [18]) [µg/mL] | MIC (E6SM [19]) [µg/mL] | also measured
Oc1ncnc2c1ncn2C1C[C@H](O)[C@H](O)[C@@H]1O (some centres undefined) | 300 (≈ 1190 µM) | 200 (≈ 793 µM) | > 300 | > 300 | 250 (≈ 991 µM) | > 400 | > 400 | > 100 | > 400 | 250 (≈ 991 µM) | 200 (≈ 793 µM) | > 200 | > 100 | > 200 | > 100 | > 100 | > 200 | > 200 | > 200 | 300 (≈ 1190 µM) | MIC (Influenza A virus): > 100 µg/mL; MIC (Influenza B virus): > 100 µg/mL
Nc1nc(N)c2ncn(C3C[C@H](O)[C@H](O)[C@@H]3O)c2n1 (some centres undefined) | > 300 | > 200 | 15 (≈ 56.3 µM) | 2 (≈ 7.51 µM) | 250 (≈ 939 µM) | > 400 | > 400 | 50 (≈ 188 µM) | 70 (≈ 263 µM) | 165 (≈ 620 µM) | 230 (≈ 864 µM) | 20 (≈ 75.1 µM) | 100 (≈ 376 µM) | > 200 | 85 (≈ 319 µM) | 20 (≈ 75.1 µM) | 10 (≈ 37.6 µM) | > 200 | > 200 | 300 (≈ 1130 µM) | MIC (MDCK [20]): > 100 µg/mL; MIC (MDCK [21]): > 100 µg/mL
Nc1nc(O)c2ncn(C3C[C@H](O)[C@H](O)[C@@H]3O)c2n1 (some centres undefined) | > 400 | > 300 | > 400 | > 400 | 250 (≈ 935 µM) | > 400 | > 200 | > 100 | > 400 | 235 (≈ 879 µM) | 225 (≈ 842 µM) | > 200 | > 100 | > 200 | > 100 | > 100 | > 200 | > 200 | > 200 | 300 (≈ 1120 µM) | MIC (MDCK [20]): > 100 µg/mL; MIC (MDCK [21]): > 100 µg/mL
NC(CCS)C(=O)Nc1ncnc2c1ncn2C1O[C@H](CO)[C@@H](O)[C@H]1O (some centres undefined) | > 400 | > 400 | 2 (≈ 5.2 µM) | 0.7 (≈ 1.82 µM) | – | > 400 | > 400 | – | 2 (≈ 5.2 µM) | – | – | 0.7 (≈ 1.82 µM) | 2 (≈ 5.2 µM) | > 100 | 2 (≈ 5.2 µM) | – | 2 (≈ 5.2 µM) | > 400 | 20 (≈ 52 µM) | > 400 | –
O=c1[nH]c(=O)n([C@H]2C[C@H](O)[C@@H](CO)O2)cc1/C=C/Br [BRIVUDINE] | 10 (≈ 30 µM) | 40 (≈ 120 µM) | 7 (≈ 21 µM) | > 400 | – | > 400 | – | > 400 | > 400 | > 10 | 0.001 (≈ 0.003 µM) | – | – | > 400 | > 400 | > 400 | > 400 | > 400 | > 400 | 0.02 (≈ 0.06 µM) | –
Nc1ncnc2c1ncn2[C@@H]1C=C(CO)[C@@H](O)[C@H]1O [NEOPLANOCIN A] | > 40 | 4 (≈ 15.2 µM) | 0.2 (≈ 0.76 µM) | 0.2 (≈ 0.76 µM) | – | > 40 | > 10 | 0.2 (≈ 0.76 µM) | 0.2 (≈ 0.76 µM) | 5 (≈ 19 µM) | 8 (≈ 30.4 µM) | 0.4 (≈ 1.52 µM) | 0.4 (≈ 1.52 µM) | > 40 | 0.4 (≈ 1.52 µM) | 0.2 (≈ 0.76 µM) | 0.4 (≈ 1.52 µM) | > 40 | > 40 | > 40 | MIC (HEL [22]): 0.4 µg/mL (≈ 1.52 µM); MIC (MDCK [20]): > 20 µg/mL; MIC (MDCK [21]): > 20 µg/mL
Nc1ncnc2c1ncn2[C@@H]1C[C@H](O)[C@@H](O)[C@H]1O [NORARISTEROMYCIN] | 300 (≈ 1190 µM) | 20 (≈ 79.6 µM) | 0.3 (≈ 1.19 µM) | 0.07 (≈ 0.279 µM) | 0.4 (≈ 1.59 µM) | > 200 | > 200 | 2 (≈ 7.96 µM) | 0.07 (≈ 0.279 µM) | 40 (≈ 159 µM) | 65 (≈ 259 µM) | 0.4 (≈ 1.59 µM) | 1 (≈ 3.98 µM) | > 200 | 0.5 (≈ 1.99 µM) | 0.4 (≈ 1.59 µM) | 0.07 (≈ 0.279 µM) | > 200 | > 200 | 200 (≈ 796 µM) | MIC (MDCK [20]): > 100 µg/mL; MIC (MDCK [21]): > 100 µg/mL
NC(=O)c1ncn([C@@H]2O[C@H](CO)[C@@H](O)[C@H]2O)n1 [RIBAVIRIN] | > 400 | > 400 | 40 (≈ 164 µM) | 70 (≈ 287 µM) | – | 70 (≈ 287 µM) | 70 (≈ 287 µM) | – | 20 (≈ 81.9 µM) | – | – | – | – | 100 (≈ 409 µM) | – | – | 70 (≈ 287 µM) | 40 (≈ 164 µM) | 40 (≈ 164 µM) | > 400 | MIC (Vero [23]): 20 µg/mL (≈ 81.9 µM)
